Legend:
[1] = system: Differentiated U937 cells; experiment: (l) Cell viability: MTT assay; type: cell-based, human; details: 1 μg/mL
Method: Differentiated U937 cells are pre-incubated with each test compound (final concentration 1 μg/mL or 10 μg/mL in 200 μL media indicated below) under two protocols: the first for 4 hr in 5% FCS RPMI1640 media and the second in 10% FCS RPMI1640 media for 24 h. The supernatant is replaced with new media (200 μL) and MTT stock solution (10 μL, 5 mg/mL) is added to each well. After incubation for 1 hr the media are removed, DMSO (200 μL) is added to each well and the plates are shaken lightly for 1 hr prior to reading the absorbance at 550 nm. The percentage loss of cell viability is calculated for each well relative to vehicle (0.5% DMSO) treatment. Consequently an apparent increase in cell viability for drug treatment relative to vehicle is tabulated as a negative percentage.

[2] = target: p38 MAPKα isoform (MAPK14) (Homo sapiens (Human), UniProt Q16539); experiment: p38 MAPKα enzyme inhibition (FRET, Z-LYTE), Method 1; type: biochemical; details: Method 1 (Table 4a1)
Chain of p38 MAPKα isoform (MAPK14) (Q16539 whole entry, canonical isoform): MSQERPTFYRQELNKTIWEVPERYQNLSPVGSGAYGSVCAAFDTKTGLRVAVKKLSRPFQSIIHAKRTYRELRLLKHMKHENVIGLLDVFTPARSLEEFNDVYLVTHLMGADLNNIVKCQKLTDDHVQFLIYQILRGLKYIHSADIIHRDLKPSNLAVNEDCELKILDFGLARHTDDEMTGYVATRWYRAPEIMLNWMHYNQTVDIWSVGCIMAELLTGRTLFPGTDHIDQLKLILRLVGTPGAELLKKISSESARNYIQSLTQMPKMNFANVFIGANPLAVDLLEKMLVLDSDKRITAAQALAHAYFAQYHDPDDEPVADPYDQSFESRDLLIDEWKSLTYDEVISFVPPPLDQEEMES
Method: The enzyme inhibitory activities of compounds disclosed herein are determined by FRET using synthetic peptides labelled with both donor and acceptor fluorophores (Z-LYTE, Invitrogen Ltd., Paisley, UK).
The inhibitory activities of test compounds against the p38 MAPKα isoform (MAPK14: Invitrogen), are evaluated indirectly by determining the level of activation/phosphorylation of the down-stream molecule, MAPKAP-K2. The p38 MAPKα protein (80 ng/mL, 2.5 μL) is mixed with the test compound (2.5 μL of either 4 μg/mL, 0.4 μg/mL, 0.04 μg/mL or 0.004 μg/mL) for 2 hr at RT. […] The mixture is incubated for 1 hr at RT. Development reagent (protease, 5 μL) is added for 1 hr prior to detection in a fluorescence microplate reader (Varioskan® Flash, ThermoFisher Scientific).
In all cases, the site-specific protease cleaves non-phosphorylated peptide only and eliminates the FRET signal. Phosphorylation levels of each reaction are calculated using the ratio of coumarin emission (donor) over fluorescein emission (acceptor), for which high ratios indicate high phosphorylation and low ratios indicate low phosphorylation levels.

Cc1ccc(-n2nc(C3(C)COC3)cc2NC(=O)Nc2ccc(Oc3ccnc(Nc4cccc(C(=O)NCCN5CCOCC5)c4)n3)c3ccccc23)cc1 [Example 22, 3-((4-((4-(3-(3-(3-methyloxetan-3-yl)-1-(p-tolyl)-1H-pyrazol-5-yl)ureido)naphthalen-1-yl)oxy)pyrimidin-2-yl)amino)-N-(2-morpholinoethyl)benzamide]
Cell viability at time point in d-U937 cells 4 h [1]: −ve (−ve and +ve indicate that the value is below and above respectively, the no significant effect threshold, defined as 30% inhibition at 1 μg/mL at the time point indicated.) | Cell viability at time point in d-U937 cells 24 h [1]: −ve (−ve and +ve indicate that the value is below and above respectively, the no significant effect threshold, defined as 30% inhibition at 1 μg/mL at the time point indicated.) | IC50 [2]: < 1 nM

COc1ccc(-n2nc(C3(C)COC3)cc2NC(=O)Nc2ccc(Oc3ccnc(Nc4cccc(C(=O)NCCN5CCOCC5)c4)n3)c3ccccc23)cc1 [Example 23, 3-((4-((4-(3-(1-(4-methoxyphenyl)-3-(3-methyloxetan-3-yl)-1H-pyrazol-5-yl)ureido)naphthalen-1-yl)oxy)pyrimidin-2-yl)amino)-N-(2-morpholinoethyl)benzamide]
Cell viability at time point in d-U937 cells 4 h [1]: −ve (−ve and +ve indicate that the value is below and above respectively, the no significant effect threshold, defined as 30% inhibition at 1 μg/mL at the time point indicated.) | Cell viability at time point in d-U937 cells 24 h [1]: −ve (−ve and +ve indicate that the value is below and above respectively, the no significant effect threshold, defined as 30% inhibition at 1 μg/mL at the time point indicated.) | IC50 [2]: < 1 nM

Cc1csc(-n2nc(C(C)(C)C)cc2NC(=O)Nc2ccc(Oc3ccnc(Nc4cccc(C(=O)NCCN5CCOCC5)c4)n3)c3ccccc23)c1 [Example 24, 3-((4-((4-(3-(3-(tert-butyl)-1-(4-methylthiophen-2-yl)-1H-pyrazol-5-yl)ureido)naphthalen-1-yl)oxy)pyrimidin-2-yl)amino)-N-(2-morpholinoethyl)benzamide]
Cell viability at time point in d-U937 cells 4 h [1]: −ve (−ve and +ve indicate that the value is below and above respectively, the no significant effect threshold, defined as 30% inhibition at 1 μg/mL at the time point indicated.) | Cell viability at time point in d-U937 cells 24 h [1]: −ve (−ve and +ve indicate that the value is below and above respectively, the no significant effect threshold, defined as 30% inhibition at 1 μg/mL at the time point indicated.) | IC50 [2]: 11 nM

Cc1ccc(-n2nc(C(C)(C)C)cc2NC(=O)Nc2ccc(Oc3ccnc(Nc4cccc(C(=O)NCCN5CCN(C)CC5)c4)n3)c3ccccc23)cc1 [Example 25, 3-((4-((4-(3-(3-(tert-butyl)-1-(p-tolyl)-1H-pyrazol-5-yl)ureido)naphthalen-1-yl)oxy)pyrimidin-2-yl)amino)-N-(2-(4-methylpiperazin-1-yl)ethyl)benzamide]
Cell viability at time point in d-U937 cells 4 h [1]: −ve (−ve and +ve indicate that the value is below and above respectively, the no significant effect threshold, defined as 30% inhibition at 1 μg/mL at the time point indicated.) | Cell viability at time point in d-U937 cells 24 h [1]: −ve (−ve and +ve indicate that the value is below and above respectively, the no significant effect threshold, defined as 30% inhibition at 1 μg/mL at the time point indicated.) | IC50 [2]: 13 nM

Cc1ccc(-n2nc(C(C)(C)C)cc2NC(=O)Nc2ccc(Oc3ccnc(Nc4cccc(C(=O)N(C)C)c4)n3)c3ccccc23)cc1 [Example 26, 3-((4-((4-(3-(3-(tert-butyl)-1-(p-tolyl)-1H-pyrazol-5-yl)ureido)naphthalen-1-yl)oxy)pyrimidin-2-yl)amino)-N,N-dimethylbenzamide]
Cell viability at time point in d-U937 cells 4 h [1]: −ve (−ve and +ve indicate that the value is below and above respectively, the no significant effect threshold, defined as 30% inhibition at 1 μg/mL at the time point indicated.) | Cell viability at time point in d-U937 cells 24 h [1]: −ve (−ve and +ve indicate that the value is below and above respectively, the no significant effect threshold, defined as 30% inhibition at 1 μg/mL at the time point indicated.) | IC50 [2]: 12 nM

Cc1ccc(-n2nc(C(C)(C)C)cc2NC(=O)Nc2ccc(Oc3ccnc(Nc4cccc(C(=O)N5CCOCC5)c4)n3)c3ccccc23)cc1 [Example 27, 1-(3-(tert-butyl)-1-(p-tolyl)-1H-pyrazol-5-yl)-3-(4-((2-((3-(morpholine-4-carbonyl)phenyl)amino)pyrimidin-4-yl)oxy)naphthalen-1-yl)urea]
Cell viability at time point in d-U937 cells 4 h [1]: −ve (−ve and +ve indicate that the value is below and above respectively, the no significant effect threshold, defined as 30% inhibition at 1 μg/mL at the time point indicated.) | Cell viability at time point in d-U937 cells 24 h [1]: −ve (−ve and +ve indicate that the value is below and above respectively, the no significant effect threshold, defined as 30% inhibition at 1 μg/mL at the time point indicated.) | IC50 [2]: 17 nM

COc1ccc(C(=O)NCCN(C)C)cc1Nc1nccc(Oc2ccc(NC(=O)Nc3cc(C(C)C)nn3-c3ccc(C)cc3)c3ccccc23)n1 [Example 28, N-(2-(dimethylamino)ethyl)-3-((4-((4-(3-(3-isopropyl-1-(p-tolyl)-1H-pyrazol-5-yl)ureido)naphthalen-1-yl)oxy)pyrimidin-2-yl)amino)-4-methoxybenzamide]
Cell viability at time point in d-U937 cells 4 h [1]: −ve (−ve and +ve indicate that the value is below and above respectively, the no significant effect threshold, defined as 30% inhibition at 1 μg/mL at the time point indicated.) | Cell viability at time point in d-U937 cells 24 h [1]: −ve (−ve and +ve indicate that the value is below and above respectively, the no significant effect threshold, defined as 30% inhibition at 1 μg/mL at the time point indicated.) | IC50 [2]: < 1 nM

COc1ccc(C(=O)NCCN2CCOCC2)cc1Nc1nccc(Oc2ccc(NC(=O)Nc3cc(C(C)C)nn3-c3ccc(C)cc3)c3ccccc23)n1 [Example 30, 3-((4-((4-(3-(3-isopropyl-1-(p-tolyl)-1H-pyrazol-5-yl)ureido)naphthalen-1-yl)oxy)pyrimidin-2-yl)amino)-4-methoxy-N-(2-morpholinoethyl)benzamide]
Cell viability at time point in d-U937 cells 4 h [1]: −ve (−ve and +ve indicate that the value is below and above respectively, the no significant effect threshold, defined as 30% inhibition at 1 μg/mL at the time point indicated.) | Cell viability at time point in d-U937 cells 24 h [1]: −ve (−ve and +ve indicate that the value is below and above respectively, the no significant effect threshold, defined as 30% inhibition at 1 μg/mL at the time point indicated.) | IC50 [2]: 3 nM

COc1ccc(C(=O)NCCN2CCOCC2)cc1Nc1nccc(Oc2ccc(NC(=O)Nc3cc(C(C)(C)C)nn3-c3ccc(C)cc3)c3ccccc23)n1 [Example 31, 3-((4-((4-(3-(3-(tert-butyl)-1-(p-tolyl)-1H-pyrazol-5-yl)ureido)naphthalen-1-yl)oxy)pyrimidin-2-yl)amino)-4-methoxy-N-(2-morpholinoethyl)benzamide]
Cell viability at time point in d-U937 cells 4 h [1]: −ve (−ve and +ve indicate that the value is below and above respectively, the no significant effect threshold, defined as 30% inhibition at 1 μg/mL at the time point indicated.) | Cell viability at time point in d-U937 cells 24 h [1]: −ve (−ve and +ve indicate that the value is below and above respectively, the no significant effect threshold, defined as 30% inhibition at 1 μg/mL at the time point indicated.) | IC50 [2]: 8 nM

COc1ccc(C(=O)NCCO)cc1Nc1nccc(Oc2ccc(NC(=O)Nc3cc(C(C)C)nn3-c3ccc(C)cc3)c3ccccc23)n1 [Example 32, N-(2-hydroxyethyl)-3-((4-((4-(3-(3-isopropyl-1-(p-tolyl)-1H-pyrazol-5-yl)ureido)naphthalen-1-yl)oxy)pyrimidin-2-yl)amino)-4-methoxybenzamide]
Cell viability at time point in d-U937 cells 4 h [1]: −ve (−ve and +ve indicate that the value is below and above respectively, the no significant effect threshold, defined as 30% inhibition at 1 μg/mL at the time point indicated.) | Cell viability at time point in d-U937 cells 24 h [1]: −ve (−ve and +ve indicate that the value is below and above respectively, the no significant effect threshold, defined as 30% inhibition at 1 μg/mL at the time point indicated.) | IC50 [2]: 1 nM

COc1ccc(C(=O)NCCO)cc1Nc1nccc(Oc2ccc(NC(=O)Nc3cc(C(C)(C)C)nn3-c3ccc(C)cc3)c3ccccc23)n1 [Example 33, 3-((4-((4-(3-(3-(tert-butyl)-1-(p-tolyl)-1H-pyrazol-5-yl)ureido)naphthalen-1-yl)oxy)pyrimidin-2-yl)amino)-N-(2-hydroxyethyl)-4-methoxybenzamide]
Cell viability at time point in d-U937 cells 4 h [1]: −ve (−ve and +ve indicate that the value is below and above respectively, the no significant effect threshold, defined as 30% inhibition at 1 μg/mL at the time point indicated.) | Cell viability at time point in d-U937 cells 24 h [1]: −ve (−ve and +ve indicate that the value is below and above respectively, the no significant effect threshold, defined as 30% inhibition at 1 μg/mL at the time point indicated.) | IC50 [2]: 4 nM

Source: patent US9701670B2, “Pyrazolyl-ureas as kinase inhibitors” (RESPIVERT LIMITED, priority 2013, dated 2017)
